Assay results reported in PubChem BioAssay AID248 (DTP/NCI, 2004).
Values joined by “and” are separate entries in the source; they are usually repeats but may differ in a detail not shown here. Equal entries are not always repeated. Inconclusive results and toxic doses are left out. No stated cut-off is given here; in the data, active means T/C of 150% or more; inactive means T/C below 125%.

System: L1210 leukemia ip in BDF1 mice, survival T/C
Assay: NCI In Vivo Anticancer Drug Screen. Data for tumor model L1210 Leukemia (intraperitoneal) in B6D2F1 (BDF1) mice
Conditions: endpoint: mean survival time, higher = longer survival
Summary of the method: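 Transplantable tumor model; survival measured in treated vs vehicle control mice. Value = treated/control.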

[1] = dose: 100.0 mg/kg/injection, schedule: Q01DX001 (ip), vehicle: saline
[2] = dose: 200.0 mg/kg/injection, schedule: Q01DX001 (ip), vehicle: saline
[3] = dose: 400.0 mg/kg/injection, schedule: Q01DX001 (ip), vehicle: saline
[4] = dose: 50.0 mg/kg/injection, schedule: Q01DX009 (ip), vehicle: Klucel (hydroxypropylcellulose) (HPC)
[5] = dose: 100.0 mg/kg/injection, schedule: Q01DX009 (ip), vehicle: Klucel (hydroxypropylcellulose) (HPC)
[6] = dose: 100.0 mg/kg/injection, schedule: Q04DX003 (ip), vehicle: Klucel (hydroxypropylcellulose) (HPC)
[7] = dose: 200.0 mg/kg/injection, schedule: Q04DX003 (ip), vehicle: Klucel (hydroxypropylcellulose) (HPC)
[8] = dose: 400.0 mg/kg/injection, schedule: Q04DX003 (ip), vehicle: Klucel (hydroxypropylcellulose) (HPC)
[9] = dose: 100.0 mg/kg/injection, schedule: Q01DX001 (ip), vehicle: Klucel (hydroxypropylcellulose) (HPC)
[10] = dose: 200.0 mg/kg/injection, schedule: Q01DX001 (ip), vehicle: Klucel (hydroxypropylcellulose) (HPC)
[11] = dose: 400.0 mg/kg/injection, schedule: Q01DX001 (ip), vehicle: Klucel (hydroxypropylcellulose) (HPC)

Measured: T/C

O=S(=O)(OCCCl)c1ccc(Cl)c(Cl)c1
inactive: dose: 100.0 mg/kg/injection, schedule: Q01DX001 (ip), vehicle: saline with Tween-80 92 % of control | dose: 200.0 mg/kg/injection, schedule: Q01DX001 (ip), vehicle: saline with Tween-80 100 % of control | dose: 400.0 mg/kg/injection, schedule: Q01DX001 (ip), vehicle: saline with Tween-80 107 % of control

O=C(c1cccc([N+](=O)[O-])c1)c1sc2ccccc2c1O
inactive: dose: 50.0 mg/kg/injection, schedule: Q04DX002 (ip), vehicle: Klucel (hydroxypropylcellulose) (HPC) 90 % of control | dose: 100.0 mg/kg/injection, schedule: Q04DX002 (ip), vehicle: Klucel (hydroxypropylcellulose) (HPC) 93 % of control | dose: 200.0 mg/kg/injection, schedule: Q04DX002 (ip), vehicle: Klucel (hydroxypropylcellulose) (HPC) 88 % of control

CCOC(=O)OCc1ccco1
inactive: dose: 100.0 mg/kg/injection, schedule: Q01DX001 (ip), vehicle: carboxymethylcellulose (CMC) 94 % of control | dose: 100.0 mg/kg/injection, schedule: Q01DX009 (ip), vehicle: carboxymethylcellulose (CMC) 101 % of control and 103 % of control | dose: 100.0 mg/kg/injection, schedule: Q04DX002 (ip), vehicle: carboxymethylcellulose (CMC) 98 % of control and 100 % of control | dose: 100.0 mg/kg/injection, schedule: Q04DX003 (ip), vehicle: carboxymethylcellulose (CMC) 102 % of control | dose: 200.0 mg/kg/injection, schedule: Q01DX001 (ip), vehicle: carboxymethylcellulose (CMC) 89 % of control | dose: 200.0 mg/kg/injection, schedule: Q01DX009 (ip), vehicle: carboxymethylcellulose (CMC) 97 % of control and 109 % of control | dose: 200.0 mg/kg/injection, schedule: Q04DX002 (ip), vehicle: carboxymethylcellulose (CMC) 98 % of control and 101 % of control | dose: 200.0 mg/kg/injection, schedule: Q04DX003 (ip), vehicle: carboxymethylcellulose (CMC) 96 % of control | dose: 400.0 mg/kg/injection, schedule: Q01DX001 (ip), vehicle: carboxymethylcellulose (CMC) 110 % of control | dose: 400.0 mg/kg/injection, schedule: Q04DX002 (ip), vehicle: carboxymethylcellulose (CMC) 103 % of control and 106 % of control | dose: 400.0 mg/kg/injection, schedule: Q04DX003 (ip), vehicle: carboxymethylcellulose (CMC) 112 % of control

NC(=O)c1cc(C(=O)O)ccc1N(N)O
inactive: dose: 100.0 mg/kg/injection, schedule: Q04DX003 (ip), vehicle: saline with Tween-80 101 % of control | dose: 200.0 mg/kg/injection, schedule: Q04DX003 (ip), vehicle: saline with Tween-80 101 % of control | dose: 400.0 mg/kg/injection, schedule: Q04DX003 (ip), vehicle: saline with Tween-80 90 % of control

Cc1cc(C(C)(C)C)cc(O)c1O
inactive: dose: 100.0 mg/kg/injection, schedule: Q01DX001 (ip), vehicle: other 113 % of control | dose: 200.0 mg/kg/injection, schedule: Q01DX001 (ip), vehicle: other 93 % of control | dose: 400.0 mg/kg/injection, schedule: Q01DX001 (ip), vehicle: other 93 % of control

COc1ccc(CCN=C2C3CC4CC(C3)CC2C4)cc1OC
inactive: [1] 98 % of control | [2] 98 % of control | [3] 103 % of control

O=C(O)C(F)(F)C(F)(F)C(=O)Nc1cc([N+](=O)[O-])ccc1F
inactive: [1] 93 % of control | [2] 93 % of control | [3] 93 % of control

COc1ccc2c3c1OC1CC(O)C=CC31CCN(C)C2 (stereo not drawn)
inactive: dose: 2.5 mg/kg/injection, schedule: Q01DX009 (ip), vehicle: saline 102 % of control | dose: 2.9 mg/kg/injection, schedule: Q01DX Z (ip), vehicle: saline 105 % of control | dose: 5.0 mg/kg/injection, schedule: Q01DX009 (ip), vehicle: saline 107 % of control

CC(=O)Nc1cccc(C(F)(F)F)c1
inactive: dose: 25.0 mg/kg/injection, schedule: Q01DX009 (ip), vehicle: Klucel (hydroxypropylcellulose) (HPC) 101 % of control | [4] 96 % of control | [5] 101 % of control

CC(=O)N(CC(=O)O)Cc1ccccc1
inactive: dose: 100.0 mg/kg/injection, schedule: Q01DX009 (ip), vehicle: other 100 % of control | dose: 100.0 mg/kg/injection, schedule: Q04DX003 (ip), vehicle: other 95 % of control | dose: 200.0 mg/kg/injection, schedule: Q01DX009 (ip), vehicle: other 105 % of control | dose: 200.0 mg/kg/injection, schedule: Q04DX003 (ip), vehicle: other 101 % of control | dose: 400.0 mg/kg/injection, schedule: Q01DX009 (ip), vehicle: other 105 % of control | dose: 400.0 mg/kg/injection, schedule: Q04DX003 (ip), vehicle: other 106 % of control

CCCOCC(O)CNCCN (stereo not drawn)
inactive: [5] 98 % of control | dose: 200.0 mg/kg/injection, schedule: Q01DX009 (ip), vehicle: Klucel (hydroxypropylcellulose) (HPC) 92 % of control

O=[N+]([O-])c1cccc(/C=N/N2CCN(/N=C/c3cccc([N+](=O)[O-])c3)CC2)c1
inactive: [1] 102 % of control | [2] 92 % of control | [3] 96 % of control

O=C(CCN1CC1)OC1CCCC1
inactive: dose: 0.25 mg/kg/injection, schedule: Q01DX009 (ip), vehicle: Klucel (hydroxypropylcellulose) (HPC) 91 % of control | dose: 0.5 mg/kg/injection, schedule: Q01DX009 (ip), vehicle: Klucel (hydroxypropylcellulose) (HPC) 97 % of control | dose: 1.0 mg/kg/injection, schedule: Q01DX009 (ip), vehicle: Klucel (hydroxypropylcellulose) (HPC) 103 % of control | dose: 2.5 mg/kg/injection, schedule: Q01DX009 (ip), vehicle: Klucel (hydroxypropylcellulose) (HPC) 100 % of control | dose: 20.0 mg/kg/injection, schedule: Q04DX003 (ip), vehicle: Klucel (hydroxypropylcellulose) (HPC) 98 % of control | dose: 40.0 mg/kg/injection, schedule: Q04DX003 (ip), vehicle: Klucel (hydroxypropylcellulose) (HPC) 97 % of control | dose: 80.0 mg/kg/injection, schedule: Q04DX003 (ip), vehicle: Klucel (hydroxypropylcellulose) (HPC) 97 % of control | [6] 102 % of control

C#CCCCCCCCCC(=O)NCC
inactive: [5] 100 % of control | [6] 95 % of control | [7] 93 % of control | dose: 400.0 mg/kg/injection, schedule: Q01DX009 (ip), vehicle: Klucel (hydroxypropylcellulose) (HPC) 104 % of control | [8] 108 % of control

OC(Cc1ccccc1)(c1ccc(Cl)cc1)c1ccc(Cl)cc1
inactive: [9] 107 % of control | [10] 95 % of control | [11] 101 % of control

C/C=C/C=C/COC(=O)C=C(C)C
inactive: dose: 100.0 mg/kg/injection, schedule: Q04DX002 (ip), vehicle: saline 107 % of control | dose: 200.0 mg/kg/injection, schedule: Q04DX002 (ip), vehicle: saline 101 % of control | dose: 400.0 mg/kg/injection, schedule: Q04DX002 (ip), vehicle: saline 107 % of control

CCCCCCCCCC(N)=O
inactive: [4] 97 % of control | [9] 110 % of control | [5] 90 % of control | [10] 100 % of control | [11] 93 % of control

CCN(CC)c1cc[c]([Hg][O]C(C)=O)cc1
inactive: dose: 1.56 mg/kg/injection, schedule: Q04DX003 (ip), vehicle: saline with Tween-80 92 % of control | dose: 3.13 mg/kg/injection, schedule: Q04DX003 (ip), vehicle: saline with Tween-80 90 % of control | dose: 6.25 mg/kg/injection, schedule: Q04DX003 (ip), vehicle: saline with Tween-80 93 % of control and 94 % of control | dose: 12.5 mg/kg/injection, schedule: Q04DX003 (ip), vehicle: saline with Tween-80 93 % of control

CC(C)(C)OC(=O)C(C1NC2C(=O)OCC2(CO)S1)N1C(=O)c2ccccc2C1=O (stereo not drawn)
inactive: [6] 95 % of control | [7] 92 % of control | [8] 101 % of control

CC(=O)N1CCc2cc(N)ccc21
inactive: dose: 200.0 mg/kg/injection, schedule: Q01DX009 (ip), vehicle: saline with Tween-80 103 % of control
